PMC4947980 (Journal of Medicinal Chemistry, 2016)
In brackets after ≈: the same amount, converted by molar mass. Several values for one entry are separate records, joined by “and”; a condition that tells them apart may be missing. Equal entries are not always repeated.

How the values were obtained:
[1] = tested on: nonreplicating M. tuberculosis; experiment: microbe, parasite or virus in culture; format: cell-based, Mycobacterium tuberculosis mc^26220 (ΔpanCDΔlysA); conditions: for activity against nonreplicating M. tuberculosis, in words: multistress nonreplicating model; for NR-MIC90 3 days OD580 = 0.01 / NR-MIC90 3 days OD580 = 0.1: 3 days exposure
[2] = tested on: replicating M. tuberculosis; experiment: MIC90 against replicating M. tuberculosis; format: cell-based, Mycobacterium tuberculosis mc^26220 (ΔpanCDΔlysA); conditions: for R-MIC90 3 days OD580 = 0.01: replicating; for activity against replicating M. tuberculosis on addition of clavulanate: data not shown
[3] = tested on: nonreplicating wild-type M. tuberculosis; format: cell-based, Mycobacterium tuberculosis H37Rv; conditions: for bactericidal activity against nonreplicating wild-type M. tuberculosis (Figure S2): in words
[4] = Solubility at pH 7.4; format: physicochemical; conditions: after shaking at room temperature for 4 h
[5] = Plasma stability, mouse; conditions: 1 μg/mL, 37 °C, parent ion monitored
[6] = tested on: nonreplicating M. tuberculosis; experiment: Charcoal agar resazurin assay; format: cell-based; conditions: for dose-dependent decrease of CARA fluorescence, effect of NaNO2: with or without 0.5 mM NaNO2, 7 days, OD580 0.1 or 0.01
[7] = Mouse liver microsomal stability; format: in vitro ADME; conditions: assayed at 0-60 min
[8] = tested on: intracellular M. tuberculosis; conditions: for CFU reduction of intracellular M. tuberculosis: IFNγ-activated macrophages, 100 μg/mL, 4 days (1) or 3 days (5)
[9] = Hydrolytic stability at pH 2, 7 and 12; format: physicochemical; conditions: percent remaining after a 4 h incubation at 37 °C
[10] = Stability in cell-free PBS and nonreplicating medium; format: physicochemical; conditions: day 6; for d6: % remaining in PBS: cell-free PBS pH 7.4, 37 °C; for d6: % remaining NR medium + 0.5 mM NaNO2: cell-free nonreplicating medium pH 5.0 with 0.5 mM NaNO2, 37 °C; for d6: % remaining NR medium: cell-free nonreplicating medium pH 5.0 without NaNO2, 37 °C
[11] = Parallel artificial membrane permeability assay; format: in vitro ADME
[12] = Human liver microsomal stability; format: in vitro ADME; conditions: liver microsomes, human liver microsomes t1/2, assayed at 0-60 min
[13] = tested on: M. tuberculosis; conditions: cited from earlier work
[14] = nonreplicating, 6 days exposure

COC(=O)C1=C(C)CS[C@@H]2[C@H](NC(=O)[C@H](N)c3ccccc3)C(=O)N12 [4a]
activity against nonreplicating M. tuberculosis, in words [1]: poorly active
activity against replicating M. tuberculosis, in words [2]: completely inactive

CCCOC(=O)C1=C(C)CS[C@@H]2[C@H](NC(=O)[C@H](N)c3ccccc3)C(=O)N12 [4b]
MIC90 ([1]; Mycobacterium tuberculosis, read-out: NR d7 OD=0.1 MIC90): 15.5 µg/mL (≈ 39.8 µM)

CC1=C(c2nc(C)no2)N2C(=O)[C@@H](NC(=O)[C@H](N)c3ccccc3)[C@H]2SC1 [4c]
activity against nonreplicating M. tuberculosis, in words [1]: poorly active
activity against replicating M. tuberculosis, in words [2]: completely inactive

CCCCOC(=O)C1=C(C)CS[C@@H]2[C@H](NC(=O)CCc3ccccc3)C(=O)N12 [12e]
bactericidal activity against nonreplicating wild-type M. tuberculosis (Figure S2) [3]: bactericidal

CCOC(=O)C1=C(C)CS[C@@H]2[C@H](NC(=O)CCc3ccc(OC)cc3)C(=O)N12 [12i]
bactericidal activity against nonreplicating wild-type M. tuberculosis (Figure S2) [3]: bactericidal

CC1=C(c2nc(C)no2)N2C(=O)[C@@H](NC(=O)COc3ccc(Cl)cc3)[C@H]2SC1 [18d]
bactericidal activity against nonreplicating wild-type M. tuberculosis (Figure S2) [3]: bactericidal

CC1=C(c2nc(C)no2)N2C(=O)[C@@H](NC(=O)OCC(Cl)(Cl)Cl)[C@H]2SC1 [19d]
bactericidal activity against nonreplicating wild-type M. tuberculosis (Figure S2) [3]: bactericidal

CCCc1noc(C2=C(C)CS[C@@H]3[C@H](NC(=O)CCc4ccc(OC)cc4)C(=O)N23)n1 [21b]
bactericidal activity against nonreplicating wild-type M. tuberculosis (Figure S2) [3]: bactericidal

CCCc1noc(C2=C(C)CS[C@@H]3[C@H](NC(=O)COc4ccc(Cl)cc4)C(=O)N23)n1 [22c]
bactericidal activity against nonreplicating wild-type M. tuberculosis (Figure S2) [3]: bactericidal

C[C@@H](O)[C@H]1C(=O)N2C(C(=O)O)=C(S[C@@H]3CN[C@H](C(=O)N(C)C)C3)[C@H](C)[C@H]12 [Meropenem, reference compound]
enhancement of replicating MIC90 by clavulanate ([2]; addition of clavulanate): 4 fold

CC1=C(C(=O)O)N2C(=O)[C@@H](NC(=O)[C@H](N)c3ccccc3)[C@H]2SC1 [cephalexin 4, cephalexin, reference compound]
activity against nonreplicating M. tuberculosis, in words [1]: inactive
NR-MIC90 3 days OD580 = 0.01 ([1]; nonreplicating, OD580 = 0.01): 97.93 µg/mL
NR-MIC90 3 days OD580 = 0.1 ([1]; nonreplicating): 61.35 µg/mL
NR-MIC90 6 days OD580 = 0.1 [1, 14]: 70.42 µg/mL
R-MIC90 3 days OD580 = 0.01 [2]: 33.99 µg/mL

CCCOC(=O)C1=C(C)CS[C@@H]2[C@H](NC(=O)COc3ccccc3)C(=O)N12 [compound 1, Propyl (6R,7R)-3-Methyl-8-oxo-7-(2-phenoxyacetamido)-5-thia-1-azabicyclo[4.2.0]oct-2-ene-2-carboxylate]
solubility [4]: 22.7 µM (≈ 8.86 µg/mL)
solubility at 4 h ([4]; pH 7.4, solubility): 23 µM (≈ 8.98 µg/mL)
stability in mouse plasma (time to complete transformation) [5]: < 5 min
enhancement of activity by nitrite ([6]; CARA, OD580 0.01, 0.5 mM NaNO2): 32- to 64 fold
dose-dependent decrease of CARA fluorescence, effect of NaNO2 [6]: strongly enhanced by the addition of NaNO2
mouse liver microsomes t1/2 [7]: rapidly metabolized
CFU reduction of intracellular M. tuberculosis [8]: 1–2 log10
pH 2 stability [9]: 100% and 110%
pH 12 stability [9]: 0.000%
d6: % remaining in PBS [10]: stable
d6: % remaining NR medium + 0.5 mM NaNO2 [10]: stable
d6: % remaining NR medium [10]: stable
NR-MIC90 3 days OD580 = 0.01 ([1]; nonreplicating, OD580 = 0.01): 0.90 µg/mL
NR-MIC90 3 days OD580 = 0.1 ([1]; nonreplicating): 1.76 µg/mL
NR-MIC90 6 days OD580 = 0.01 ([1]; nonreplicating, 6 days exposure, OD580 = 0.01): 0.64 µg/mL
NR-MIC90 6 days OD580 = 0.1 [1, 14]: 1.05 µg/mL
PAMPA log Pe [11]: –5.15
concentration that reduced colony-forming units by 2 log10 [3]: 0.7–0.8 μg/mL
activity against replicating M. tuberculosis on addition of clavulanate ([2]; addition of clavulanate): did not lead to activity
R-MIC90 3 days OD580 = 0.01 [2]: >100 µg/mL

CCCOC(=O)N[C@@H]1C(=O)N2C(C(=O)OCCC)=C(C)CS[C@H]12 [compound 2]
d6: % remaining in PBS [10]: stable
d6: % remaining NR medium + 0.5 mM NaNO2 [10]: stable
d6: % remaining NR medium [10]: stable
NR-MIC90 3 days OD580 = 0.01 ([1]; nonreplicating, OD580 = 0.01): 3.11 µg/mL
NR-MIC90 3 days OD580 = 0.1 ([1]; nonreplicating): 2.61 µg/mL
NR-MIC90 6 days OD580 = 0.1 [1, 14]: 0.52 µg/mL
activity against replicating M. tuberculosis on addition of clavulanate ([2]; addition of clavulanate): did not lead to activity
R-MIC90 3 days OD580 = 0.01 [2]: 55.44 µg/mL

CCCN[C@@H]1C(=O)N2C(C(=O)OCCC)=C(C)CS[C@H]12 [compound 3]
d6: % remaining NR medium + 0.5 mM NaNO2 [10]: unstable
activity against nonreplicating M. tuberculosis, in words [1]: significant activity
NR-MIC90 3 days OD580 = 0.01 ([1]; nonreplicating, OD580 = 0.01): 0.7 µg/mL
NR-MIC90 3 days OD580 = 0.1 ([1]; nonreplicating): 2.69 µg/mL
NR-MIC90 6 days OD580 = 0.1 [1, 14]: 0.45 µg/mL
activity against replicating M. tuberculosis on addition of clavulanate ([2]; addition of clavulanate): did not lead to activity
R-MIC90 3 days OD580 = 0.01 [2]: >100 µg/mL

CC1=C(c2nc(C)no2)N2C(=O)[C@@H](NC(=O)COc3ccccc3)[C@H]2SC1 [compound 5, N-((6R,7R)-3-Methyl-2-(3-methyl-1,2,4-oxadiazol-5-yl)-8-oxo-5-thia-1-azabicyclo[4.2.0]oct-2-en-7-yl)-2-phenoxyacetamide]
half-life [12]: ~1.33 h
solubility [4]: 83.7 µM (≈ 32.3 µg/mL)
stability in mouse plasma (time to complete transformation) [5]: < 5 min
dose-dependent decrease of CARA fluorescence, effect of NaNO2 [6]: strongly enhanced by the addition of NaNO2
mouse liver microsomes t1/2 [7]: rapidly metabolized
CFU reduction of intracellular M. tuberculosis [8]: 1–2 log10
IFNγ dependence of bactericidal activity against intracellular M. tuberculosis ([8]; macrophages activated or not with 50 ng/mL IFNγ): strictly IFNγ dependent
pH 2 stability [9]: 100%
pH 12 stability [9]: 0.000%
d6: % remaining NR medium + 0.5 mM NaNO2 [10]: stable
PAMPA log Pe [11]: –4.87
concentration that reduced colony-forming units by 2 log10 [3]: 0.7–0.8 μg/mL
bactericidal activity against nonreplicating wild-type M. tuberculosis (Figure S2) [3]: bactericidal

COCC1=C(C)CS[C@@H]2[C@H](NC(=O)COc3ccccc3)C(=O)N12 [compound 10]
activity against nonreplicating M. tuberculosis, in words [1]: inactive

CCCc1noc(C2=C(C)CS[C@@H]3[C@H](NC(=O)c4ccc(Cl)cc4)C(=O)N23)n1 [compound 23]
bactericidal activity against nonreplicating wild-type M. tuberculosis (Figure S2) [3]: bactericidal

C[C@@H](O)[C@H]1C(=O)N2C(C(=O)O)=C([C@H]3CCCO3)S[C@H]12 [faropenem, reference compound]
killing of replicating and nongrowing M. tuberculosis [13]: kill both replicating and nongrowing M. tuberculosis
activity against nonreplicating M. tuberculosis, in words [1]: inactive
